According to patent US11434492B2, “Ribosome-mediated incorporation of peptides and peptidomimetics” (Arizona Board of Regents on behalf of Arizona State …, priority 2015, dated 2022):

Assays:
[1] = test system: modified ribosomes from clones 010328R4; assay: In vitro translation: incorporation into position 49 of DHFR (pETDH49), S-30 from clone 010328R4; type: biochemical, E. coli; details: clone 010328R4 (group 1)
Experimental: (§1) In vitro Protein Translation. Protein translation reactions were carried out in 12-2000 μL of incubation mixture containing 0.4 μL/μL of S-30 system, 100 ng/μL of plasmid, 35 mM Tris acetate, pH 7.4, 190 mM potassium glutamate, 30 mM ammonium acetate, 2 mM DTT, 0.2 mg/mL total E. coli tRNA, 3.5% PEG 6000, 20 μg/mL folinic acid, 20 mM ATP and GTP, 5 mM CTP and UTP, 100 μM amino acids mixture, 0.5 μCi/μL of ^35S-methionine for analytical purposes only and 1 μg/mL rifampicin. In the case of plasmids having a gene with a TAG codon, a suppressor tRNA was added to a concentration of 0.8 μg/μL. Reactions were carried out at 37° C. for 1 h (for 12 μL reaction mixtures) to 1.5 h (for 2000 μL reaction mixtures) and terminated by chilling on ice. Aliquots from in vitro translation mixtures were analyzed by SDS-PAGE followed by quantification of the radioactive bands by phosphorimager analysis.
The other two compounds gave about 1.5-2 times lower suppression efficiency (7-9 and 5-6%).

[2] = test system: modified ribosomes (23S rRNA modified); assay: In vitro translation: suppression of UAG codon at position 10 of DHFR mRNA, S-30 systems having modified ribosomes; type: biochemical, E. coli; details: position 10 of E. coli DHFR, relative to wild-type DHFR = 100
Experimental: Preparation of Aminoacyl-tRNACUAs. The activation of suppressor tRNACUAs was carried out as described previously.^4,5 Briefly, 100-μL reaction mixture of 100 mM Na Hepes, pH 7.5, contained 1.0 mM ATP, 15 mM MgCl2, 100 μg of suppressor tRNACUA-COH, 0.5 A260 unit of N-pentenoyl-protected aminoacyl-pdCpA, 15% DMSO, and 100 units of T4 RNA ligase. The reaction mixture was incubated at 37° C. for 1.5 h and quenched by the addition of 0.1 vol of 3 M NaOAc, pH 5.2. The N-protected aminoacylated tRNA was precipitated with 3 vol of cold ethanol. The efficiency of ligation was estimated by 8% polyarylamide-7 M urea gel electrophoresis (pH 5.0).
The N-pentenoyl-protected aminoacyl-tRNACUAs were deprotected by treatment with 5 mM aqueous […] at 25° C. for 15 min. The solution was centrifuged, and the supernatant was adjusted to 0.3 M NaOAc and treated with 3 vol of cold ethanol to precipitate the aminoacylated tRNA. The tRNA pellet was collected by centrifugation, washed with 70% aq EtOH, air dried and dissolved in 20 μL of RNase free water.
Preparation of S-30 Extracts from Cells Having Modified Ribosomes. Aliquots (5-10 μL) from liquid stocks of E. coli BL-21 (DE-3) cells, harboring plasmids with a wild-type or modified rrnB gene, were placed on LB agar supplemented with 100 µg/mL of ampicillin and grown at 37° C. for 16-18 h. One colony was picked from each agar plate and transferred into 3 mL of LB medium supplemented with 100 μg/mL of ampicillin and 0.5 mM IPTG.
as §1
Incorporation of Dipeptides 2, 3 and 4 into DHFR Using the Modified Ribosomes. Initially, glycylphenylalanine (2) was chosen to screen the selected modified ribosomes for their ability to incorporate a dipeptide into DHFR. It was anticipated that minimal steric hindrance and more flexibility at the N-terminus of the dipeptide (a glycine residue) would enable optimal positioning of the amine for a nucleophilic attack in the PTC of the modified ribosomes. A modified DHFR construct, having a TAG codon in position 10 (pETDH10 plasmid) was used for the incorporation of glycylphenylalanine.
The suppression efficiencies were expressed relative to the wild-type DHFR synthesis. As a negative control, wild-type DHFR synthesis in the presence of nonacylated-tRNACUA was measured for each experiment. The amounts of DHFR produced were quantified with a phosphoimager, which monitored the incorporation of ^35S-methionine into DHFR. Using glycylphenylalanyl-tRNACUA, S-30 preparations having the modified ribosomes from clone groups 1, 2, 3 and 9 produced full length DHFR in ˜9% yields relative to the wild-type DHFR synthesis (Table 3). The modified ribosomes from clone groups 4-8 incorporated glycylphenylalanine (2) with low yields (˜2-4%). For dipeptide 2, best incorporation yields (up to 12%) were obtained by S-30 system having modified ribosomes from clone group 9 (2057AGUGAGA2063 and 2502AUCCGA2507).

[3] = test system: modified ribosomes from clone 010326R6; assay: In vitro translation: suppression of TAG codon at position 66 of GFP (pETGFP66), S-30 from clone 010326R6; type: biochemical, Escherichia coli
Experimental: as §1
The free amino acids both have λex in the range 296-302 nm but the λem of 7 is somewhat red-shifted compared to that of 6. […] As a negative control, wild-type GFP synthesis from the modified mRNA in the presence of nonacylated tRNACUA was measured for each experiment. The amounts of GFP produced were quantified with a phosphoimager, which monitored the incorporation of ^35S-methionine into proteins. […]

[4] = Fluorescence emission of dipeptidomimetics and of proteins containing them; type: physicochemical; details: as stated for comparison of 6 and wild-type BFP
Source text: Further, we prepared a modified DHFR having dipeptidomimetic 6 at position 10 at larger scale to investigate the fluorescence intensity of 6 in protein. The fluorescence emission spectra of wild-type DHFR and modified DHFR having 6 at position 10 were compared (FIG. 8) at 302 nm excitation wavelength.
Fluorescence Emission of an Artificial BFP Having Dipeptidomimetic 6. We designed fluorescent dipeptidomimetics 6-10 as stable analogues of GFP-chromophore. We anticipated their use to create artificial fluorescent proteins; to verify the same we replaced the chromophore of BFP with dipeptidomimetic 6 in order to prepare an artificial fluorescent protein. The fluorescence emission of 6 is near blue region of visible light spectrum (˜400 nm). Therefore, we compared the fluorescence emission intensity of artificial FP (artificial BFP 1) having 6 at position 66 with wild-type BFP, which has a fluorescence emission ˜450 nm. […] Wild-type and artificial BFP were prepared in a larger scale in a cell free translation system for fluorescence measurements.
A modified BFP construct, having a TAG codon in position 66 and a suppressor tRNACUA activated with 6 were used for the preparation of artificial BFP 1. […] As illustrated from FIG. 11, fluorescence intensity of artificial BFP 1 (emission maximum ˜375 nm) having 6 in position 66 is 20-fold greater than the wild-type BFP at similar protein concentrations. […]

SMILES	suppression efficiency (full-length DHFR synthesis relative to wild-type) [1]	Suppression efficiency in different S-30 systems, having modified ribosomes (%) ([2]; clone group 1)	Suppression efficiency in different S-30 systems, having modified ribosomes (%) ([2]; clone group 9)	suppression yield (full length GFP) relative to wild-type GFP synthesis [3]	fluorescence emission [4]
C=CCCC(=O)N[C@H]1CCCCN(CC(=O)OC2C(COP(=O)(O)OC3CC(n4ccc(N)nc4=O)OC3COP(=O)(O)O)OC(n3cnc4c(N)ncnc43)C2O)C1=O (stereo partly drawn) [cyclic peptidomimetic 145, (S)-2-(2-Oxo-3-(pent-4-enamido)azepan-1-yl)acetyl-pdCpA]	11-13%	–	–	–	–
COc1ccc(-c2oc(CN)nc2C(=O)O)cc1 [dipeptidomimetic 6]	–	10.2 ± 1.7%	9.8 ± 2.1%	~6.5%	~400 nm
